Source: PubChem BioAssay (NCI)
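Grown in 96-well plates, cells were treated for 48 hours with each compound at five concentrations. Insufficient inhibition: endpoint recorded as highest concentration tested. At the GI50, growth is halved. TGI: total growth inhibition.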

Columns and labels:
Test in all cases: NCI-60 cell line screen, 48 h
[1] = tested on: HS 578T breast
[2] = tested on: OVCAR-4 ovarian
[3] = tested on: SF-539 CNS
[4] = tested on: NCI/ADR-RES ovarian
[5] = tested on: MALME-3M melanoma
[6] = tested on: HOP-62 NSCLC
[7] = tested on: DU-145 prostate
[8] = tested on: OVCAR-5 ovarian
[9] = tested on: LOX IMVI melanoma
[10] = tested on: SK-MEL-2 melanoma
[11] = tested on: HT29 colon
[12] = tested on: SF-268 CNS
[13] = tested on: OVCAR-3 ovarian
[14] = tested on: EKVX NSCLC
[15] = tested on: ACHN renal
[16] = tested on: PC-3 prostate
[17] = tested on: U251 CNS
[18] = tested on: MDA-MB-231 breast
[19] = tested on: MCF7 breast
[20] = tested on: A498 renal
[21] = tested on: CCRF-CEM leukemia
[22] = tested on: SK-MEL-5 melanoma
[23] = tested on: HCT-15 colon
[24] = tested on: SK-MEL-28 melanoma
[25] = tested on: CAKI-1 renal
[26] = tested on: NCI-H23 lung
[27] = tested on: SR leukemia
[28] = tested on: COLO 205 colon
[29] = tested on: SN12C renal
[30] = tested on: RXF 393 renal
[31] = tested on: SNB-75 CNS
[32] = tested on: SK-OV-3 ovarian
[33] = tested on: HOP-92 NSCLC
[34] = tested on: K-562 leukemia
[35] = tested on: MOLT-4 leukemia
[36] = tested on: MDA-MB-435
[37] = tested on: M14 melanoma
[38] = tested on: NCI-H522 lung
[39] = tested on: NCI-H460 lung
[40] = tested on: SF-295 CNS
[41] = tested on: BT-549 breast
[42] = tested on: SW-620 colon
[43] = tested on: SNB-19 CNS
[44] = tested on: UO-31 renal
[45] = tested on: NCI-H226 lung
[46] = tested on: IGROV1 ovarian
[47] = tested on: 786-0 renal
[48] = tested on: A549 NSCLC
[49] = tested on: RPMI-8226 leukemia
[50] = tested on: HCT-116 colon
[51] = tested on: TK-10 renal
[52] = tested on: KM12 colon
[53] = tested on: OVCAR-8 ovarian
[54] = tested on: UACC-257 melanoma
[55] = tested on: HCC-2998 colon
[56] = tested on: T-47D breast
[57] = tested on: UACC-62 melanoma
[58] = tested on: HL-60(TB) leukemia

SMILES: COc1cc2cc(C(=O)CCC(=O)O)sc2cc1OC
- GI50 [1]: > 100 µM
- TGI [1]: > 100 µM
- GI50 [2]: > 100 µM
- TGI [2]: > 100 µM
- GI50 [3]: 16.5 µM
- TGI [3]: > 100 µM
- GI50 [4]: > 100 µM
- TGI [4]: > 100 µM
- GI50 [5]: > 100 µM
- TGI [5]: > 100 µM
- GI50 [6]: > 100 µM
- TGI [6]: > 100 µM
- GI50 [7]: > 100 µM
- TGI [7]: > 100 µM
- GI50 [8]: > 100 µM
- TGI [8]: > 100 µM
- GI50 [9]: > 100 µM
- TGI [9]: > 100 µM
- GI50 [10]: > 100 µM
- TGI [10]: > 100 µM
- GI50 [11]: 54.6 µM
- TGI [11]: > 100 µM
- GI50 [12]: > 100 µM
- TGI [12]: > 100 µM
- GI50 [13]: > 100 µM
- TGI [13]: > 100 µM
- GI50 [14]: > 100 µM
- TGI [14]: > 100 µM
- GI50 [15]: > 100 µM
- TGI [15]: > 100 µM
- GI50 [16]: > 100 µM
- TGI [16]: > 100 µM
- GI50 [17]: > 100 µM
- TGI [17]: > 100 µM
- GI50 [18]: > 100 µM
- TGI [18]: > 100 µM
- GI50 [19]: > 100 µM
- TGI [19]: > 100 µM
- GI50 [20]: 18.7 µM
- TGI [20]: 45.4 µM
- GI50 [21]: > 100 µM
- TGI [21]: > 100 µM
- GI50 [22]: > 100 µM
- TGI [22]: > 100 µM
- GI50 [23]: > 100 µM
- TGI [23]: > 100 µM
- GI50 [24]: > 100 µM
- TGI [24]: > 100 µM
- GI50 [25]: > 100 µM
- TGI [25]: > 100 µM
- GI50 [26]: > 100 µM
- TGI [26]: > 100 µM
- GI50 [27]: 3.53 µM
- TGI [27]: > 100 µM
- GI50 [28]: > 100 µM
- TGI [28]: > 100 µM
- GI50 [29]: > 100 µM
- TGI [29]: > 100 µM
- GI50 [30]: 33.4 µM
- TGI [30]: > 100 µM
- GI50 [31]: 12.7 µM
- TGI [31]: > 100 µM
- GI50 [32]: 62.4 µM
- TGI [32]: > 100 µM
- GI50 [33]: 37.3 µM
- TGI [33]: > 100 µM
- GI50 [34]: > 100 µM
- TGI [34]: > 100 µM
- GI50 [35]: > 100 µM
- TGI [35]: > 100 µM
- GI50 [36]: > 100 µM
- TGI [36]: > 100 µM
- GI50 [37]: > 100 µM
- TGI [37]: > 100 µM
- GI50 [38]: > 100 µM
- TGI [38]: > 100 µM
- GI50 [39]: > 100 µM
- TGI [39]: > 100 µM
- GI50 [40]: > 100 µM
- TGI [40]: > 100 µM
- GI50 [41]: > 100 µM
- TGI [41]: > 100 µM
- GI50 [42]: > 100 µM
- TGI [42]: > 100 µM
- GI50 [43]: > 100 µM
- TGI [43]: > 100 µM
- GI50 [44]: > 100 µM
- TGI [44]: > 100 µM
- GI50 [45]: 47.4 µM
- TGI [45]: > 100 µM
- GI50 [46]: > 100 µM
- TGI [46]: > 100 µM
- GI50 [47]: > 100 µM
- TGI [47]: > 100 µM
- GI50 [48]: > 100 µM
- TGI [48]: > 100 µM
- GI50 [49]: > 100 µM
- TGI [49]: > 100 µM
- GI50 [50]: > 100 µM
- TGI [50]: > 100 µM
- GI50 [51]: > 100 µM
- TGI [51]: > 100 µM
- GI50 [52]: > 100 µM
- TGI [52]: > 100 µM
- GI50 [53]: > 100 µM
- TGI [53]: > 100 µM
- GI50 [54]: 33.4 µM
- TGI [54]: > 100 µM
- GI50 [55]: > 100 µM
- TGI [55]: > 100 µM
- GI50 [56]: > 100 µM
- TGI [56]: > 100 µM
- GI50 [57]: > 100 µM
- TGI [57]: > 100 µM
- GI50 [58]: 28.3 µM
- TGI [58]: > 100 µM

SMILES: CCOc1ccc(-c2cnnn2-c2nonc2-n2cccc2)cc1
- GI50 [1]: 0.229 µM
- TGI [1]: 0.873 µM
- GI50 [2]: 0.655 µM
- TGI [2]: > 100 µM
- GI50 [3]: 0.319 µM
- TGI [3]: 3.77 µM
- GI50 [4]: 0.139 µM
- TGI [4]: > 38.1 µM
- GI50 [5]: 0.383 µM
- TGI [5]: > 78.3 µM
- GI50 [6]: 0.421 µM
- TGI [6]: > 100 µM
- GI50 [7]: 0.286 µM
- TGI [7]: 0.905 µM
- GI50 [8]: 1.08 µM
- TGI [8]: > 100 µM
- GI50 [9]: 0.46 µM
- TGI [9]: > 100 µM
- GI50 [10]: 0.308 µM
- TGI [10]: > 100 µM
- GI50 [11]: 0.22 µM
- TGI [11]: 4.54 µM
- GI50 [12]: 0.736 µM
- TGI [12]: > 100 µM
- GI50 [13]: 0.233 µM
- TGI [13]: 0.65 µM
- GI50 [14]: 0.569 µM
- TGI [14]: > 100 µM
- GI50 [15]: 0.689 µM
- TGI [15]: > 100 µM
- GI50 [16]: 0.365 µM
- TGI [16]: > 100 µM
- GI50 [17]: 0.339 µM
- TGI [17]: > 78.7 µM
- GI50 [18]: 0.337 µM
- TGI [18]: 5.03 µM
- GI50 [19]: 0.283 µM
- TGI [19]: > 100 µM
- GI50 [20]: 0.203 µM
- TGI [20]: 0.924 µM
- GI50 [21]: 0.296 µM
- TGI [21]: > 100 µM
- GI50 [22]: 0.245 µM
- TGI [22]: 12.4 µM
- GI50 [23]: 0.251 µM
- TGI [23]: > 100 µM
- GI50 [24]: 0.402 µM
- TGI [24]: > 100 µM
- GI50 [25]: 0.352 µM
- TGI [25]: > 100 µM
- GI50 [26]: 0.282 µM
- GI50 [27]: 0.104 µM
- TGI [27]: 41.4 µM
- GI50 [28]: 0.247 µM
- TGI [28]: 0.808 µM
- GI50 [29]: 0.557 µM
- TGI [29]: > 100 µM
- GI50 [30]: 0.172 µM
- TGI [30]: 0.774 µM
- GI50 [31]: 0.138 µM
- TGI [31]: 0.527 µM
- GI50 [32]: 0.274 µM
- TGI [32]: 1.02 µM
- GI50 [33]: 0.401 µM
- TGI [33]: 9.27 µM
- GI50 [34]: 0.0638 µM
- TGI [34]: > 100 µM
- GI50 [35]: 0.51 µM
- TGI [35]: 31.7 µM
- GI50 [36]: 0.0345 µM
- TGI [36]: 0.168 µM
- GI50 [37]: 0.122 µM
- TGI [37]: 0.365 µM
- GI50 [38]: 0.121 µM
- TGI [38]: 0.531 µM
- GI50 [39]: 0.345 µM
- TGI [39]: > 33.4 µM
- GI50 [40]: 0.295 µM
- TGI [40]: > 91.2 µM
- GI50 [41]: 0.363 µM
- GI50 [42]: 0.111 µM
- TGI [42]: > 100 µM
- GI50 [43]: 0.729 µM
- TGI [43]: > 100 µM
- GI50 [44]: 0.376 µM
- TGI [44]: > 88.8 µM
- GI50 [45]: 1.52 µM
- TGI [45]: > 100 µM
- GI50 [46]: 0.581 µM
- TGI [46]: > 100 µM
- GI50 [47]: 0.416 µM
- TGI [47]: > 100 µM
- GI50 [48]: 0.388 µM
- TGI [48]: > 100 µM
- GI50 [49]: 0.32 µM
- TGI [49]: 10.9 µM
- GI50 [50]: 0.226 µM
- TGI [50]: 1.46 µM
- GI50 [51]: 0.597 µM
- TGI [51]: > 100 µM
- GI50 [52]: 0.125 µM
- TGI [52]: 10.1 µM
- GI50 [53]: 0.439 µM
- TGI [53]: > 100 µM
- GI50 [54]: 0.449 µM
- TGI [54]: > 69 µM
- GI50 [55]: 0.364 µM
- TGI [55]: > 33 µM
- GI50 [56]: 0.466 µM
- TGI [56]: > 100 µM
- GI50 [57]: 0.379 µM
- TGI [57]: > 60.3 µM
- GI50 [58]: 0.309 µM
- TGI [58]: 13.4 µM
